Test results: patent publication US20110288176A1, “[…] ACID-CONTAINING COMPOSITION FOR PREVENTION OR TREATMENT OF […]-RELATED DISEASES AND METHOD FOR PREVENTION OR TREATMENT OF […]-RELATED DISEASES USING THE SAME” (priority 2008, published 2011)

Molecular target: T1, Transglutaminase 2 (Cavia cutleri, UniProt P08587)
T1 construct: purchased Sigma-Aldrich T5398
T1 sequence (P08587 1-690): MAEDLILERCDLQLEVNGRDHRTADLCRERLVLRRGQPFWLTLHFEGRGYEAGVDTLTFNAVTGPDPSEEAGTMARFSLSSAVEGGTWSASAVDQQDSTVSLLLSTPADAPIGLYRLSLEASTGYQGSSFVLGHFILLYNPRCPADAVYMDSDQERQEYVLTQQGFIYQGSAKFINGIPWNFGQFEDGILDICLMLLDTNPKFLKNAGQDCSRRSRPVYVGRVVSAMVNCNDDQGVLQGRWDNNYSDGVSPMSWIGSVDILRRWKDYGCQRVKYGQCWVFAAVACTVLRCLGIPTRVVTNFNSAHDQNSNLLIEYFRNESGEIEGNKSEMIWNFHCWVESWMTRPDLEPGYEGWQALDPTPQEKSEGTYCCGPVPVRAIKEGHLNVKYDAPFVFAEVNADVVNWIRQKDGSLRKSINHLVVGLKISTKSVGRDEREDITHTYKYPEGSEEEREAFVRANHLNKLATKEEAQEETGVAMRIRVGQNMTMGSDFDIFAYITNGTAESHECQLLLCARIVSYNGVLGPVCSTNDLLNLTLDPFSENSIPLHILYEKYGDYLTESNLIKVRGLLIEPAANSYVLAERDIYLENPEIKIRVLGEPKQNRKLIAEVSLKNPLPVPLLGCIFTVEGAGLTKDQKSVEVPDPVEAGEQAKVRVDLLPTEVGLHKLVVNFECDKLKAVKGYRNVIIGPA
Experiment: In vitro assay for inhibition of transglutaminase activity ([1,4-14C]putrescine incorporation into succinylated casein)
Format: biochemical
Conditions: for activity of transglutaminase, Mean: mean of three assays
Protocol: Succinylated casein was purchased from Calbiochem (Cat. No. 573464), and 1 g of the powder was dissolved in 50 ml of a reaction buffer solution containing 5 mM DTT (0.1 M Tris-acetate (pH 8.0), 10 mM CaCl2, 0.15 M NaCl, 1.0 mM EDTA). This solution was stored in a deep freezer for further use. [1,4-^14C] Putrescine dihydrochloride was purchased from GE Healthcare (Cat. No. CFA301), and the stock solution was diluted with distilled water to yield a radiological dose of 5 μCi/ml. Transglutaminase 2 was purchased from Sigma-Aldrich (Cat. No. T5398), and diluted with distilled water to yield a final concentration of 1 unit/ml.
450 μl of succinylated casein solution and 50 μl of [1,4-^14C] putrescine dihydrochloride solution were mixed together to prepare a substrate solution. […] 500 μl of the substrate solution β and 100 μl of sample solution were mixed well, and the mixture was incubated at 37° C. for 2 hrs, before termination with 4.5 ml of cold (4° C.) 7.5% TCA. The final solution was stored at 4° C. for 1 hr. The TCA-protein precipitates were filtered through a GF/glass fiber filter, washed with 25 ml of cold 5% TCA, and dried.

[1] = 5 μM ethacrynic acid, relative to DMSO control (=1.0000)
[2] = 10 μM ethacrynic acid, relative to DMSO control (=1.0000)
[3] = 25 μM ethacrynic acid, relative to DMSO control (=1.0000)
[4] = 50 μM ethacrynic acid, relative to DMSO control (=1.0000)

C=C(CC)C(=O)c1ccc(OCC(=O)O)c(Cl)c1Cl [ethacrynic acid, 2-[2,3-dichloro-4-(2-methylidenebuanoyl)phenoxy]acetic acid]
activity of transglutaminase, Mean [1]: 0.4796 | activity of transglutaminase, Assay 1 (5 μM ethacrynic acid, radioactivity of cross-linked protein relative to DMSO control (=1.0000)): 0.5667 | activity of transglutaminase, Assay 2 [1]: 0.4572 | activity of transglutaminase, Assay 3 [1]: 0.4148 | activity of transglutaminase, Mean [2]: 0.3752 | activity of transglutaminase, Assay 1 [2]: 0.4319 | activity of transglutaminase, Assay 2 [2]: 0.3654 | activity of transglutaminase, Assay 3 [2]: 0.3281 | activity of transglutaminase, Mean [3]: 0.1935 | activity of transglutaminase, Assay 1 [3]: 0.2337 | activity of transglutaminase, Assay 2 [3]: 0.1812 | activity of transglutaminase, Assay 3 [3]: 0.1656 | activity of transglutaminase, Mean [4]: 0.0736 | activity of transglutaminase, Assay 1 [4]: 0.0763 | activity of transglutaminase, Assay 2 [4]: 0.0799 | activity of transglutaminase, Assay 3 [4]: 0.0645 | inhibition of transglutaminase activity (in words) (FIG. 1): inhibited in an ethacrynic acid concentration-dependent manner
